Experiments:
[1] = biological target: muscarinic binding site; test: inhibition of specific binding at the muscarinic binding site
Procedure: The compounds were assayed at one or more concentrations in each binding assay.

[2] = test system: patients clinically diagnosed as having presenile primary degenerative dementia; conditions: double blind study, Christie et al. (1981); cited from earlier work
[3] = test system: rats; test: reversal of retrograde amnesia in rats produced by electroconvulsive shock treatment; type: in vivo, rat (Charles River CD strain); set-up: reversal of retrograde amnesia (Table C): scale not given here
Procedure: Several representative compounds of the present invention were also assayed in an in vivo test designed to assess the ability of the compounds to reverse retrograde amnesia in rats produced by electroconvulsive shock treatment. Activity of a compound in this test is indicative of potential cognition activating activity in human patients suffering from impaired cognitive function.
In the test, groups of fifty weanling rats (Charles River CD strain) are randomly divided into five sub-groups of ten rats each. The rats are trained by placing them in a highly illuminated 6 inch by 8 inch box which opens into a darkened 8 inch by 12 inch chamber having electrified grids. Initially, rats move freely from the illuminated compartment to the darkened chamber through a 4 inch by 4 inch doorway.
When a rat has all four feet within the darkened chamber, the floor of the darkened chamber is electrified and the rat is electrically shocked until it exits to the original illuminated area. If a rat reenters the darkened chamber before one minute has elapsed, it again receives a mild foot shock until it exits to the illuminated area. When the rat remains in the illuminated area for a period of one minute, it is removed and placed in a group holding cage.
Two hours after the above training, the rats are given a single 20 ma electroconvulsive shock of 1 second duration and immediately returned to the holding cage.
Two hours after the delivery of the shock, the rats are administered the test compound orally, or intraperitoneally or intramuscularly for special tests.
One hour after treatment with the test compound, the rats are tested for retention of the avoidance response. This is accomplished by placing a drug-treated rat in the illuminated area of the test chamber. […] Any rat entering the darkened chamber within sixty seconds is designated as having amnesia for this response.
The five sub-groups of ten rats each were treated as follows:
A 50% difference between the baseline and ceiling control groups was required to evaluate a particular test compound. If a difference of less than 50% was observed, the results of that particular experiment were discarded.
Under the test conditions, a difference of this magnitude is statistically significant using the multinomial expansion of the statistical chi-square test.

Compound	IC50 [1] [µM]	test of picture recognition [2]	active (A) / inactive (N), reversal of retrograde amnesia ([3]; 0.01 mg/kg)	reversal of retrograde amnesia (Table C) ([3]; 0.01 mg/kg)	active (A) / inactive (N), reversal of retrograde amnesia ([3]; 0.1 mg/kg)	reversal of retrograde amnesia (Table C) ([3]; 0.1 mg/kg)	active (A) / inactive (N), reversal of retrograde amnesia ([3]; 1.0 mg/kg)	reversal of retrograde amnesia (Table C) ([3]; 1.0 mg/kg)
COC(=O)C1=CCCN(C)C1 [Arecoline, methyl ester of 1,2,5,6-tetrahydro-1-methyl-3-pyridinecarboxylic acid, reference compound]	1.1	Significant improvement	–	–	–	–	–	–
COC(=O)C1=C(c2ccccc2)CCN(C)C1 [Example 21, 1,2,5,6-tetrahydro-1-methyl-4-phenyl-3-pyridinecarboxylicacid, methyl ester]	3.16	–	A ("active" (A) if the difference between the numbers of animals in the drug and control groups reentering the darkened chamber was equal or greater than three out of ten)	57	N (if less than three, the test compound was considered "inactive" (N))	57	N (if less than three, the test compound was considered "inactive" (N))	0
CCCN1CCC(c2ccccc2)=C(C(=O)OC)C1 [Example 22, 1,2,5,6-Tetrahydro-4-phenyl-1-propyl-3-pyridinecarboxylic acid, methyl ester]	6.5	–	A ("active" (A) if the difference between the numbers of animals in the drug and control groups reentering the darkened chamber was equal or greater than three out of ten)	57	A ("active" (A) if the difference between the numbers of animals in the drug and control groups reentering the darkened chamber was equal or greater than three out of ten)	81	A ("active" (A) if the difference between the numbers of animals in the drug and control groups reentering the darkened chamber was equal or greater than three out of ten)	57

— patent US4745123A, “Substituted tetrahydro-3-pyridine-carboxylic acid, ester, and amide cholinergic agents” (priority 1986, dated 1988)
